Data taken from patent US10588317B2, “Isoxazoline-substituted benzamides and analogues as insecticides” (priority 2015, dated 2020).

Legend:
Type in all cases: in vivo
Euschistus heros = Euschistus heros (neotropical brown stink bug), sprayed soybean leaves; settings: 120 h, application rate 200 ppm, N2 nymphs, 5 days after infestation, read-out: effect in at least one of the two categories (mortality or growth inhibition)
Protocol: Soybean leaves on agar in 24-well microtiter plates were sprayed with aqueous test solutions prepared from 10'000 ppm DMSO stock solutions. After drying the leaves were infested with N2 nymphs. The samples were assessed for mortality and growth inhibition in comparison to untreated samples 5 days after infestation.
(§1) The following compounds gave an effect of at least 80% in at least one of the two categories (mortality or growth inhibition) at an application rate of 200 ppm: […]

Plutella xylostella = Plutella xylostella (diamond back moth), artificial diet; settings: 120 h, application rate 200 ppm, L2 larvae, 5 days after infestation, read-out: effect in at least one of the two categories (mortality or growth inhibition)
Protocol: (§2) 24-well microtiter plates with artificial diet were treated with aqueous test solutions prepared from 10'000 ppm DMSO stock solutions by pipetting. After drying, the plates were infested with L2 larvae (10 to 15 per well). The samples were assessed for mortality and growth inhibition in comparison to untreated samples 5 days after infestation.
as §1

Myzus persicae = Myzus persicae (green peach aphid): feeding/contact activity; settings: 144 h, application rate 200 ppm, aphid population of mixed ages, 6 days after infestation, read-out: mortality
Protocol: (§3) Sunflower leaf discs were placed onto agar in a 24-well microtiter plate and sprayed with aqueous test solutions prepared from 10'000 ppm DMSO stock solutions. After drying, the leaf discs were infested with an aphid population of mixed ages. The samples were assessed for mortality 6 days after infestation.

Diabrotica balteata = Diabrotica balteata (corn root worm), sprayed maize sprouts; settings: 96 h, application rate 200 ppm, L2 larvae, 4 days after infestation, read-out: effect in at least one of the two categories (mortality or growth inhibition)
Protocol: as §2, with “Maize sprouts placed onto an agar layer in 24-well” for “24-well”, “plates” for “plates with artificial diet”, “spraying.” for “pipetting.”, “(6” for “(10”, “10” for “15”, “4” for “5”
as §1

Thrips tabaci = Thrips tabaci (onion thrips): feeding/contact activity; settings: 144 h, application rate 200 ppm, Thrips population of mixed ages, 6 days after infestation, read-out: mortality
Protocol: as §3, with “on” for “onto”, “in” for “in a”, “plates” for “plate”, “drying” for “drying,”, “a Thrips” for “an aphid”

Tetranychus urticae = Tetranychus urticae (two-spotted spider mite): feeding/contact activity; settings: 192 h, application rate 200 ppm, mixed population (mobile stages), 8 days after infestation, read-out: mortality
Protocol: Bean leaf discs on agar in 24-well microtiter plates were sprayed with aqueous test solutions prepared from 10'000 ppm DMSO stock solutions. After drying the leaf discs were infested with a mite population of mixed ages. The samples were assessed for mortality on mixed population (mobile stages) 8 days after infestation.

Spodoptera littoralis = Spodoptera littoralis (Egyptian cotton leaf worm), sprayed cotton leaf discs; settings: foliar, 72 h, application rate 200 ppm, L1 larvae, 3 days after infestation, read-out: control (mortality, anti-feeding effect, growth inhibition)
Protocol: Cotton leaf discs were placed onto agar in 24-well microtiter plates and sprayed with aqueous test solutions prepared from 10'000 ppm DMSO stock solutions. After drying the leaf discs were infested with five L1 larvae. The samples were assessed for mortality, anti-feeding effect, and growth inhibition in comparison to untreated samples 3 days after infestation. Control of Spodoptera littoralis by a test sample is given when at least one of the categories mortality, anti-feedant effect, and growth inhibition is higher than the untreated sample.

CNS(=O)(=O)N1C[C@H](NC(=O)c2ccc(C3=NO[C@@](c4ccc(F)c(C(F)(F)F)c4)(C(F)(F)F)C3)cc2C)CO1 [Compound A181]
≥ 80%: percent effect (mortality or growth inhibition) at 200 ppm (Euschistus heros) | percent effect (mortality or growth inhibition) at 200 ppm (Plutella xylostella) | mortality at 200 ppm (Myzus persicae) | percent effect (mortality or growth inhibition) at 200 ppm (Diabrotica balteata) | mortality at 200 ppm (Thrips tabaci) | mortality at 200 ppm (Tetranychus urticae) | mortality at 200 ppm (Spodoptera littoralis)

Cc1cc(C2=NO[C@](c3cc(Cl)c(F)c(Cl)c3)(C(F)(F)F)C2)ccc1C(=O)N[C@@H]1CON(S(=O)(=O)C(F)(F)F)C1 [Compound A223, 4-[(5R)-5-(3,5-dichloro-4-fluorophenyl)-5-(trifluoromethyl)-4H-1,2-oxazol-3-yl]-2-methyl-N-[(4S)-2-(trifluoromethylsulfonyl)-1,2-oxazolidin-4-yl]benzamide]
≥ 80%: percent effect (mortality or growth inhibition) at 200 ppm (Euschistus heros) | percent effect (mortality or growth inhibition) at 200 ppm (Plutella xylostella) | mortality at 200 ppm (Myzus persicae) | percent effect (mortality or growth inhibition) at 200 ppm (Diabrotica balteata) | mortality at 200 ppm (Thrips tabaci) | mortality at 200 ppm (Tetranychus urticae) | mortality at 200 ppm (Spodoptera littoralis)

Cc1cc(C2=NO[C@@](c3cc(Cl)c(F)c(Cl)c3)(C(F)(F)F)C2)ccc1C(=O)N[C@@H]1CON(S(N)(=O)=O)C1 [Compound A208, 4-[(5S)-5-(3,5-dichloro-4-fluorophenyl)-5-(trifluoromethyl)-4H-1,2-oxazol-3-yl]-2-methyl-N-[(4S)-2-sulfamoyl-1,2-oxazolidin-4-yl]benzamide]
≥ 80%: percent effect (mortality or growth inhibition) at 200 ppm (Plutella xylostella) | mortality at 200 ppm (Myzus persicae) | percent effect (mortality or growth inhibition) at 200 ppm (Diabrotica balteata) | mortality at 200 ppm (Thrips tabaci) | mortality at 200 ppm (Tetranychus urticae) | mortality at 200 ppm (Spodoptera littoralis)

Cc1cc(C2=NO[C@@](c3cc(Cl)c(Cl)c(Cl)c3)(C(F)(F)F)C2)ccc1C(=O)N[C@H]1CON(S(=O)(=O)CC(F)(F)F)C1 [Compound A221, 2-methyl-4-[(5S)-5-(3,4,5-trichlorophenyl)-5-(trifluoromethyl)-4H-1,2-oxazol-3-yl]-N-[(4R)-2-(2,2,2-trifluoroethylsulfonyl)-1,2-oxazolidin-4-yl]benzamide]
≥ 80%: percent effect (mortality or growth inhibition) at 200 ppm (Euschistus heros) | percent effect (mortality or growth inhibition) at 200 ppm (Plutella xylostella) | percent effect (mortality or growth inhibition) at 200 ppm (Diabrotica balteata) | mortality at 200 ppm (Thrips tabaci) | mortality at 200 ppm (Tetranychus urticae) | mortality at 200 ppm (Spodoptera littoralis)

C=CCN(C(=O)OC(C)(C)C)S(=O)(=O)N1CC(NC(=O)c2ccc(C3=NO[C@@](c4cc(Cl)c(F)c(Cl)c4)(C(F)(F)F)C3)cc2C)CO1 (stereo partly drawn) [Compound A94, tert-butyl N-allyl-N-[4-[[4-[(5S)-5-(3,5-dichloro-4-fluoro-phenyl)-5-(trifluoromethyl)-4H-isoxazol-3-yl]-2-methyl-benzoyl]amino]isoxazolidin-2-yl]sulfonyl-carbamate]
≥ 80%: percent effect (mortality or growth inhibition) at 200 ppm (Euschistus heros) | percent effect (mortality or growth inhibition) at 200 ppm (Plutella xylostella) | percent effect (mortality or growth inhibition) at 200 ppm (Diabrotica balteata) | mortality at 200 ppm (Thrips tabaci) | mortality at 200 ppm (Tetranychus urticae) | mortality at 200 ppm (Spodoptera littoralis)

COC(=O)CS(=O)(=O)N1C[C@@H](NC(=O)c2ccc(C3=NO[C@](c4cc(Cl)cc(Cl)c4)(C(F)(F)F)C3)cc2C)CO1 [Compound A176, methyl 2-[[(4R)-4-[[4-[(5R)-5-(3,5-dichlorophenyl)-5-(trifluoromethyl)-4H-1,2-oxazol-3-yl]-2-methylbenzoyl]amino]-1,2-oxazolidin-2-yl]sulfonyl]acetate]
≥ 80%: percent effect (mortality or growth inhibition) at 200 ppm (Euschistus heros) | percent effect (mortality or growth inhibition) at 200 ppm (Plutella xylostella) | percent effect (mortality or growth inhibition) at 200 ppm (Diabrotica balteata) | mortality at 200 ppm (Thrips tabaci) | mortality at 200 ppm (Tetranychus urticae) | mortality at 200 ppm (Spodoptera littoralis)

Cc1cc(C2=NO[C@@](c3cc(Cl)cc(Cl)c3)(C(F)(F)F)C2)ccc1C(=O)N[C@@H]1CON(S(=O)(=O)CC(=O)N(C)C)C1 [Compound A202, 4-[(5S)-5-(3,5-dichlorophenyl)-5-(trifluoromethyl)-4H-1,2-oxazol-3-yl]-N-[(4S)-2-[2-(dimethylamino)-2-oxoethyl]sulfonyl-1,2-oxazolidin-4-yl]-2-methylbenzamide]
≥ 80%: percent effect (mortality or growth inhibition) at 200 ppm (Euschistus heros) | percent effect (mortality or growth inhibition) at 200 ppm (Plutella xylostella) | percent effect (mortality or growth inhibition) at 200 ppm (Diabrotica balteata) | mortality at 200 ppm (Thrips tabaci) | mortality at 200 ppm (Tetranychus urticae) | mortality at 200 ppm (Spodoptera littoralis)

Cc1cc(C2=NO[C@@](c3cc(Cl)c(F)c(Cl)c3)(C(F)(F)F)C2)ccc1C(=O)NC1CON(S(=O)(=O)c2ccc(Cl)cc2)C1 (stereo partly drawn) [Compound A2, N-[2-(4-chlorophenyl)sulfonylisoxazolidin-4-yl]-4-[(5S)-5-(3,5-dichloro-4-fluoro-phenyl)-5-(trifluoromethyl)-4H-isoxazol-3-yl]-2-methyl-benzamide]
≥ 80%: percent effect (mortality or growth inhibition) at 200 ppm (Euschistus heros) | percent effect (mortality or growth inhibition) at 200 ppm (Plutella xylostella) | percent effect (mortality or growth inhibition) at 200 ppm (Diabrotica balteata) | mortality at 200 ppm (Thrips tabaci) | mortality at 200 ppm (Tetranychus urticae) | mortality at 200 ppm (Spodoptera littoralis)

Cc1cc(C2=NO[C@](c3cc(Cl)c(F)c(Cl)c3)(C(F)(F)F)C2)ccc1C(=O)N[C@H]1CON(S(=O)(=O)CC#N)C1 [Compound A163]
≥ 80%: percent effect (mortality or growth inhibition) at 200 ppm (Euschistus heros) | percent effect (mortality or growth inhibition) at 200 ppm (Plutella xylostella) | percent effect (mortality or growth inhibition) at 200 ppm (Diabrotica balteata) | mortality at 200 ppm (Thrips tabaci) | mortality at 200 ppm (Tetranychus urticae) | mortality at 200 ppm (Spodoptera littoralis)

CS(=O)(=O)N1CC(NC(=O)c2ccc(C3=NOC(c4cc(Cl)cc(Cl)c4)(C(F)(F)F)C3)cc2Cl)CO1 (centres unmarked) [Compound A49]
≥ 80%: percent effect (mortality or growth inhibition) at 200 ppm (Euschistus heros) | percent effect (mortality or growth inhibition) at 200 ppm (Plutella xylostella) | percent effect (mortality or growth inhibition) at 200 ppm (Diabrotica balteata) | mortality at 200 ppm (Thrips tabaci) | mortality at 200 ppm (Tetranychus urticae) | mortality at 200 ppm (Spodoptera littoralis)

Cc1cc(C2=NO[C@@](c3cc(Cl)c(F)c(Cl)c3)(C(F)(F)F)C2)ccc1C(=O)NC1CON(S(=O)(=O)N(C)S(C)(=O)=O)C1 (some centres unmarked) [Compound A92]
≥ 80%: percent effect (mortality or growth inhibition) at 200 ppm (Euschistus heros) | percent effect (mortality or growth inhibition) at 200 ppm (Plutella xylostella) | percent effect (mortality or growth inhibition) at 200 ppm (Diabrotica balteata) | mortality at 200 ppm (Thrips tabaci) | mortality at 200 ppm (Tetranychus urticae) | mortality at 200 ppm (Spodoptera littoralis)

Cc1cc(C2=NO[C@@](c3cc(Cl)c(Cl)c(Cl)c3)(C(F)(F)F)C2)ccc1C(=O)NC1CON(S(=O)(=O)C2CC2)C1 (stereo partly drawn) [Compound A29, N-(2-cyclopropylsulfonylisoxazolidin-4-yl)-2-methyl-4-[(5S)-5-(3,4,5-trichlorophenyl)-5-(trifluoromethyl)-4H-isoxazol-3-yl]benzamide]
≥ 80%: percent effect (mortality or growth inhibition) at 200 ppm (Plutella xylostella) | mortality at 200 ppm (Myzus persicae) | percent effect (mortality or growth inhibition) at 200 ppm (Diabrotica balteata) | mortality at 200 ppm (Thrips tabaci) | mortality at 200 ppm (Tetranychus urticae) | mortality at 200 ppm (Spodoptera littoralis)

Cc1cc(C2=NO[C@](c3cc(Cl)cc(Cl)c3)(C(F)(F)F)C2)ccc1C(=O)N[C@H]1CON(S(=O)(=O)CC#N)C1 [Compound A165, N-[(4R)-2-(cyanomethylsulfonyl)-1,2-oxazolidin-4-yl]-4-[(5R)-5-(3,5-dichlorophenyl)-5-(trifluoromethyl)-4H-1,2-oxazol-3-yl]-2-methylbenzamide]
≥ 80%: percent effect (mortality or growth inhibition) at 200 ppm (Euschistus heros) | percent effect (mortality or growth inhibition) at 200 ppm (Plutella xylostella) | percent effect (mortality or growth inhibition) at 200 ppm (Diabrotica balteata) | mortality at 200 ppm (Thrips tabaci) | mortality at 200 ppm (Tetranychus urticae) | mortality at 200 ppm (Spodoptera littoralis)
